Laboratory results as given in patent US8685720B2, “Engineered cellular pathways for programmed autoregulation of differentiation” (The Trustees of Princeton University, priority 2006, dated 2014).
“Also recorded” adds a separate entry of the source.

Tested on: mammalian version of LuxR in 293FT cells
Test: 30C6HSL detection by mammalian receiver cells expressing chimeric LuxR-activator
Assay type: cell-based
Details: P65-LuxR fusion, synthetic lux promoter, exogenous 30C6HSL
From the text: FIG. 2: (a) 30C6HSL synthesis by mammalian 293FT cells. Supernatant from the cells' growth media was collected and filter sterilized. Histograms show the fluorescence intensities of bacterial cells sensitive to 30C6HSL grown in the filtered supernatant, expressing green fluorescent protein due to 30C6HSL from the mammalian cells. (b) 30C6HSL detection by mammalian receiver cells. […] (c) Controlled stem cell differentiation with genetically inducible systems. Three different lentiviral genetic constructs were built, enabling exogenous chemical induction into myoblasts, adipocytes, or maintenance of stem cell properties. […] In addition, the marker protein for myoblasts, dystrophin, was expressed from these cells (data not shown). […] In a separate experiment, induced expression of Nanog supplanted the need for a growth factor usually required to maintain the overall character of mES cells.
The 30C6HSL detection pathway consists of a signal transducer that binds 30C6HSL and activates transcription of genes controlled by a synthetic lux promoter. The 30C6HSL signal transducer is a chimeric LuxR-activator protein created by the fusion of a P65 mammalian activation domain to a codon optimized mammalian version of a bacterial LuxR.

CCCC(=O)CC(=O)N[C@H]1CCOC1=O [30C6HSL]
response (EGFP expression) to the addition of 30C6HSL: strong response; also recorded: express EGFP only upon induction with exogenous 30C6HSL
